Laboratory results taken from patent US7098340B2, “Benzyl sulfonamide derivatives” (Warner Lambert Company LLC, priority 2003, dated 2006).

What follows are compounds tested against T1, androgen receptor (Homo sapiens, UniProt P10275) (assay: AR Antagonist Cell Assay (MMTV-luciferase reporter, DHT-stimulated)). Details: MDA-MB453-MMTV clone 54-19 cells; antagonism of 100 pM DHT, 17 hr, luciferase readout.
T1 sequence (P10275 1-920 Q868H): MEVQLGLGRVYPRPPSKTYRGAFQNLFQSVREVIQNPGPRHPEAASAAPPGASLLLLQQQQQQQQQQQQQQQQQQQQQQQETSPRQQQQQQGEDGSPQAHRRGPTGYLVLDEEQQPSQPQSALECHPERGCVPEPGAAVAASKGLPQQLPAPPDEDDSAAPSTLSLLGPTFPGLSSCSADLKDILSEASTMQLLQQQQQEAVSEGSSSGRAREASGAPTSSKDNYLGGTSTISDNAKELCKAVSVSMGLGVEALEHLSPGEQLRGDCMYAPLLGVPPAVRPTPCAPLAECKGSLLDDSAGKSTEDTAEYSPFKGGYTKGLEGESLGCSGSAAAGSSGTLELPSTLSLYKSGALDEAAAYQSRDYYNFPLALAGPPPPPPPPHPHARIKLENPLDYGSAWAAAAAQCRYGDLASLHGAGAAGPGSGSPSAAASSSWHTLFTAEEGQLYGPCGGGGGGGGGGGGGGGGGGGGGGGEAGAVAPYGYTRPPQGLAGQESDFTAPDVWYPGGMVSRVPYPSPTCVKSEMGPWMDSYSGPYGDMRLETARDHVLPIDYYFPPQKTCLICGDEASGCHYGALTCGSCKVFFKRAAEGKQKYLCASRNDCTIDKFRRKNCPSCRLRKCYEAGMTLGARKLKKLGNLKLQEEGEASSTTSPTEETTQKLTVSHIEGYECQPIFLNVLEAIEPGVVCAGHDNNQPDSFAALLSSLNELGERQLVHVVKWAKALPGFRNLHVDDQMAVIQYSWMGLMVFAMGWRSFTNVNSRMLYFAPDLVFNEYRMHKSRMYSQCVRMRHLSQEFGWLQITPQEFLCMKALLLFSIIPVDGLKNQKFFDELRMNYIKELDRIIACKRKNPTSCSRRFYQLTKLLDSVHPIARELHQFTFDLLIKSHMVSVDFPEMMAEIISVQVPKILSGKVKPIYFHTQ
Assay type: cell-based
In short: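 MDA-MB453 cells stably carrying MMTV-ARE-firefly luciferase, in 1% charcoal-treated serum, preincubated 30 min with compound (10 uM or 1 uM) then stimulated with 100 pM DHT for 17 h at 37° C. Luminescence read; result as % inhibition of DHT fold induction.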

Compound | IC50
COc1ccc(OC)c(NS(=O)(=O)c2ccc(Cc3ccc4oc(=O)cc(C(F)(F)F)c4c3)cc2)c1 [Example 140, N-(2,5-Dimethoxyphenyl)-4-(2-oxo-4-trifluoromethyl-2H-chromen-6-ylmethyl)-benzenesulfonamide] | 7.3 µM
C#Cc1ccc(NS(=O)(=O)c2ccc(Cc3ccc4oc(=O)cc(C(F)(F)F)c4c3)cc2)cc1 [Example 118, N-(4-Ethynylphenyl)-4-(2-oxo-4-trifluoromethyl-2H-chromen-6-ylmethyl)-benzenesulfonamide] | 5.47 µM
CC(O)c1cccc(NS(=O)(=O)c2ccc(Cc3ccc4oc(=O)cc(C(F)(F)F)c4c3)cc2)c1 (centres unmarked) [Example 133, N-[3-(1-Hydroxyethyl)phenyl]-4-(2-oxo-4-trifluoromethyl-2H-chromen-6-ylmethyl)-benzenesulfonamide] | 6.91 µM
O=c1cc(C(F)(F)F)c2cc(Cc3ccc(S(=O)(=O)Nc4ccc(CO)cc4)cc3)ccc2o1 [Example 124, N-(4-Hydroxymethylphenyl)-4-(2-oxo-4-trifluoromethyl-2H-chromen-6-ylmethyl)-benzenesulfonamide] | 2.31 µM
CSc1ccccc1CNS(=O)(=O)c1ccc(Cc2ccc3[nH]c(=O)cc(C(F)(F)F)c3c2)cc1 [Example 73, N-(2-Methylsulfanylbenzyl)-4-(2-oxo-4-trifluoromethyl-1,2-dihydroquinolin-6-ylmethyl)-benzenesulfonamide] | > 10 µM
CCOc1ccccc1CNS(=O)(=O)c1ccc(Cc2ccc3[nH]c(=O)cc(C(F)(F)F)c3c2)cc1 [Example 71, N-(2-Ethoxybenzyl)-4-(2-oxo-4-trifluoromethyl-1,2-dihydroquinolino-6-ylmethyl)-benzenesulfonamide] | > 10 µM
Cc1ccc(-c2ccccc2)cc1NS(=O)(=O)c1ccc(Cc2ccc3oc(=O)cc(C(F)(F)F)c3c2)cc1 [Example 132, N-(4-Methylbiphenyl-3-yl)-4-(2-oxo-4-trifluoromethyl-2H-chromen-6-ylmethyl)-benzenesulfonamide] | 8.13 µM
O=c1cc(C(F)(F)F)c2cc(Cc3ccc(S(=O)(=O)NCc4ccccc4OC(F)F)cc3)ccc2[nH]1 [Example 83, N-(2-Difluoromethoxybenzyl)-4-(2-oxo-4-trifluoromethyl-1,2-dihydroquinolin-6-ylmethyl)-benzenesulfonamide] | > 10 µM
CC(C)N(c1ccccc1)c1ccc(NS(=O)(=O)c2ccc(Cc3ccc4[nH]c(=O)cc(C(F)(F)F)c4c3)cc2)cc1 [Example 48, N-[4-(Isopropylphenylamino)-phenyl]-4-(2-oxo-4-trifluoromethyl-1,2-dihydroquinolin-6-ylmethyl)-benzenesulfonamide] | 4.97 µM
O=c1cc(C(F)(F)F)c2cc(Cc3ccc(S(=O)(=O)Nc4cccc(OC(F)(F)F)c4)cc3)ccc2o1 [Example 147, 4-(2-Oxo-4-trifluoromethyl-2H-chromen-6-ylmethyl)-N-(3-trifluoromethoxyphenyl)-benzenesulfonamide] | 8.58 µM
CC(O)c1cccc(NS(=O)(=O)c2ccc(Cc3ccc4[nH]c(=O)cc(C(F)(F)F)c4c3)cc2)c1 (centres unmarked) [Example 23, N[-3-(1-Hydroxyethyl)phenyl]-4-(2-oxo-4-trifluoromethyl-1,2-dihydroquinolin-6-ylmethyl)-benzenesulfonamide] | 1.67 µM
Cc1ccc2cc(NS(=O)(=O)c3ccc(Cc4ccc5oc(=O)cc(C(F)(F)F)c5c4)cc3)ccc2n1 [Example 139, N-(2-Methylquinolin-6-yl)-4-(2-oxo-4-trifluoromethyl-2H-chromen-6-ylmethyl)-benzenesulfonamide] | 2.03 µM
O=c1cc(C(F)(F)F)c2cc(Cc3ccc(S(=O)(=O)Nc4cccc5cnccc45)cc3)ccc2[nH]1 [Example 31, N-Isoquinolin-5-yl-4-(2-oxo-4-trifluoromethyl-1,2-dihydroquinolin-6-ylmethyl)-benzenesulfonamide] | > 10 µM
O=c1cc(C(F)(F)F)c2cc(Cc3ccc(S(=O)(=O)Nc4cccc(-c5cnco5)c4)cc3)ccc2o1 [Example 144, N-(3-Oxazol-5-ylphenyl)-4-(2-oxo-4-trifluoromethyl-2H-chromen-6-ylmethyl)-benzenesulfonamide] | 2.17 µM
O=c1cc(C(F)(F)F)c2cc(Cc3ccc(S(=O)(=O)N(CCO)Cc4ccccc4)cc3)ccc2o1 [Example 103, N-Benzyl-N-(2-hydroxyethyl)-4-(2-oxo-4-trifluoromethyl-2H-chromen-6-ylmethyl)-benzenesulfonamide] | ~10 µM
O=c1cc(C(F)(F)F)c2cc(Cc3ccc(S(=O)(=O)Nc4cccc5cccnc45)cc3)ccc2o1 [Example 137, 4-(2-Oxo-4-trifluoromethyl-2H-chromen-6-ylmethyl)-N-quinolin-8-ylbenzenesulfonamide] | 7.08 µM
O=c1cc(C(F)(F)F)c2cc(Cc3ccc(S(=O)(=O)NCC(c4ccccc4)c4ccccc4)cc3)ccc2[nH]1 [Example 92, N-(2,2-Diphenylethyl)-4-(2-oxo-4-trifluoromethyl-1,2-dihydroquinolin-6-ylmethyl)-benzenesulfonamide] | 2.71 µM

Further lines, results first:

IC50 | Compound
6 µM | O=c1cc(C(F)(F)F)c2cc(Cc3ccc(S(=O)(=O)NCCc4cccs4)cc3)ccc2o1 [Example 176, 4-(2-Oxo-4-trifluoromethyl-2H-chromen-6-ylmethyl)-N-(2-thiophen-2-ylethyl)benzenesulfonamide]
1.94 µM | Cc1ccc(CNS(=O)(=O)c2ccc(Cc3ccc4oc(=O)cc(C(F)(F)F)c4c3)cc2)c(F)c1F [Example 197, N-(2,3-Difluoro-4-methylbenzyl)-4-(2-oxo-4-trifluoromethyl-2H-chromen-6-ylmethyl)benzenesulfonamide]
5.5 µM | O=c1cc(C(F)(F)F)c2cc(Cc3ccc(S(=O)(=O)NCCCn4ccnc4)cc3)ccc2o1 [Example 174, N-(3-Imidazol-1-ylpropyl)-4-(2-oxo-4-triftuoromethyl-2H-chromen-6-ylmethyl)benzenesulfonamide]
4.66 µM | C[C@H](NS(=O)(=O)c1ccc(Cc2ccc3oc(=O)cc(C(F)(F)F)c3c2)cc1)c1ccccc1 [Example 172, 4-(2-Oxo-4-trifluoromethyl-2H-chromen-6-ylmethyl)-N-(1-phenylethyl)-benzenesulfonamide]
7.2 µM | CCOc1ccc(NS(=O)(=O)c2ccc(Cc3ccc4oc(=O)cc(C(F)(F)F)c4c3)cc2)cc1 [Example 150, N-(4-Ethoxyphenyl)-4-(2-oxo-4-trifluoromethyl-2H-chromen-6-ylmethyl)-benzenesulfonamide]
7.74 µM | O=c1cc(C(F)(F)F)c2cc(Cc3ccc(S(=O)(=O)NC4CCc5ccccc54)cc3)ccc2o1 (centres unmarked) [Example 178, N-Indan-1-yl-4-(2-oxo-4-trifluoromethyl-2H-chromen-6-ylmethyl)benzenesulfonamide]
9.11 µM | O=c1cc(C(F)(F)F)c2cc(Cc3ccc(S(=O)(=O)NC4CCC(O)CC4)cc3)ccc2o1 (centres unmarked) [Example 193, N-(4-Hydroxycyclohexyl)-4-(2-oxo-4-trifluoromethyl-2H-chromen-6-ylmethyl)benzenesulfonamide]
6.52 µM | O=c1cc(C(F)(F)F)c2cc(Cc3ccc(S(=O)(=O)NC(CCO)c4ccccc4)cc3)ccc2o1 (centres unmarked) [Example 192, N-(3-Hydroxy-1-phenylpropyl)-4-(2-oxo-4-trifluoromethyl-2H-chromen-6-ylmethyl)benzenesulfonamide]
0.77 µM | O=c1cc(C(F)(F)F)c2cc(Cc3ccc(S(=O)(=O)Nc4cccc(OCc5ccccc5)c4)cc3)ccc2o1 [Example 152, N-(3-Benzyloxyphenyl)-4-(2-oxo-4-trifluoromethyl-2H-chromen-6-ylmethyl)-benzenesulfonamide]
